Test results: US9714213B2, “4-aminomethylbenzoic acid derivative” (TOA EIYO LTD., priority 2013, dated 2017)
Like-named read-outs stand apart in the source and are kept apart here.

Legend:
[1] = target: T1, human sGC (Homo sapiens, UniProt Q02153); experiment: Maximum effect of sGC activation (intracellular Ca2+, Fura2-AM) in CHO-K1 cells stably expressing human sGC and mouse CNGA2; assay type: cell-based; settings: increase rate of sGC activity vs DMSO control, test compound 10 μmol/L
T1 construct: expressed in transfected cells; host or cells: CHO-K1 (Chinese hamster ovary) cells
T1 sequence (Q02153 1-619): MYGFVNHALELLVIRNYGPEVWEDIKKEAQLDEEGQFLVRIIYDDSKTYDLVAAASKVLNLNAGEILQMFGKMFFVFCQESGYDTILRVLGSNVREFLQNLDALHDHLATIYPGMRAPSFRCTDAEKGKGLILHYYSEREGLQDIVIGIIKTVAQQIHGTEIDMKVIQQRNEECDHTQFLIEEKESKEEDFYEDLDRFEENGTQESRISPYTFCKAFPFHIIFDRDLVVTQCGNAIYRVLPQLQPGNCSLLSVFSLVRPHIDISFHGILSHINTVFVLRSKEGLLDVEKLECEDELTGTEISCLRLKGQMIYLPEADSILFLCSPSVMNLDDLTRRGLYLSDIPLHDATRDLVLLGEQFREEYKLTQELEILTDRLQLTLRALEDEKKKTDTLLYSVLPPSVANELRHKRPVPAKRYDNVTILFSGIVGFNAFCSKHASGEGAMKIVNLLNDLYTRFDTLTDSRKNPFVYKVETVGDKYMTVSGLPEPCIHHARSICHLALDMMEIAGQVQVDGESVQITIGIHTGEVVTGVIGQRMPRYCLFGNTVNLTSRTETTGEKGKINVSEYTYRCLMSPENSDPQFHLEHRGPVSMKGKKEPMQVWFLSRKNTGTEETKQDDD
T1 sequence (Q02108 1-690 partner): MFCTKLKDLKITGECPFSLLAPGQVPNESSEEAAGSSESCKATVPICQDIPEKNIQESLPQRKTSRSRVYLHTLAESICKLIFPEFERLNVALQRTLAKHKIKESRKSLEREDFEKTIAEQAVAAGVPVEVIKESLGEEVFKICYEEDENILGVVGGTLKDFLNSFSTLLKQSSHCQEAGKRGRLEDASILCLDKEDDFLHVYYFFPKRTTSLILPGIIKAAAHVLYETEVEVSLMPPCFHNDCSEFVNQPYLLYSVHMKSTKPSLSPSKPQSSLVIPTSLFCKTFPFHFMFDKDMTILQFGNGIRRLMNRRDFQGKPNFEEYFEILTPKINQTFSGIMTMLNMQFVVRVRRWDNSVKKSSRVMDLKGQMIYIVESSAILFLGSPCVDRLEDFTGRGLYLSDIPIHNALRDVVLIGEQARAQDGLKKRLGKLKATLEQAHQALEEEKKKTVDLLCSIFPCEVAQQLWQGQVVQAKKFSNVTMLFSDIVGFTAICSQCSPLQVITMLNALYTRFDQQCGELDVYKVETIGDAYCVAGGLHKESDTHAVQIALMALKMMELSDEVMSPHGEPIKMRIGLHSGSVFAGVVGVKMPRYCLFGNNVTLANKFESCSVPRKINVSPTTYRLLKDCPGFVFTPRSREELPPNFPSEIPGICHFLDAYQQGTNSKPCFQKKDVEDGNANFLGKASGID
Description: For the assay, chinese hamster ovary cells (CHO-K1 cells) stably expressing both α and β subunits of human sGC and mouse cyclic nucleotide-gated channel (CNGA2) were used.
The CHO-K1 cells stably expressing human sGC and mouse CNGA2 was cultured at 37° C. on F-12 medium containing 10% (v/v) fetal bovine serum (FBS), penicillin (100 U/mL), streptomycin (100 μg/mL), G418 (250 μg/mL) and Zeocin (250 μg/mL). The cells were suspended in a culture medium, seeded on a 96 well plate, and then cultured at 37° C. for 24 hours. The cells were washed with Assay buffer 1 (140 mmol/L sodium chloride, 5 mmol/L potassium chloride, 0.5 mmol/L magnesium chloride, 0.01 mmol/L calcium chloride, 10 mmol/L glucose, 0.4 mmol/L magnesium sulfate, 10 mmol/L 4-(2-hydroxyethyl)piperazin-1-ylethanesulfonic acid and 125 μmol/L sulfinpyrazone, pH 7.4), and then added a solution containing Fura2-AM, a fluorescent Ca^2+ indicator, in Assay buffer 1 at […] concentration thereto as an indicator solution, and cultured at 37° C. for 60 minutes. The culture medium was removed, and the cells were washed with Assay buffer 1, and then added a solution containing the test compound thereto, and cultured at room temperature for 10 minutes. A plate was placed onto a fluorometer (FlexStation II, Molecular Devices), and the intracellular calcium concentration was determined as the ratio of fluorescent intensity, obtained from measurement using 340 nm and 380 nm as excitation wavelength and 510 nm as detection wavelength.
The solution of the test compound was prepared by dissolving each test compound in DMSO at 10 mmol/L, and then diluting the solution for the test concentration at 10 μmol/L with Assay buffer (140 mmol/L sodium chloride, 5 mmol/L potassium chloride, 0.5 mmol/L magnesium chloride, 1 mmol/L calcium chloride, 10 mmol/L glucose, 0.4 mmol/L magnesium sulfate, 10 mmol/L 4-(2-hydroxyethyl)piperazin-1-ylethanesulfonic acid, […] sulfinpyrazone, 100 μmol/L isobutyl methyl xanthine, and 10 μmol/L 1H-[1,2,4]-oxadiazol[4,3-a]quinoxaline-1-one (hereinafter, ODQ), pH 7.4). The evaluation in the absence of ODQ was performed similarly, except that ODQ was not added to Assay buffer 2. As a control solution, a DMSO solution was used instead of the test compound solution.
The activity of the test compound defined as the increase rate of the sGC activity (%) at the time of adding the solution of the test compound with respect to the sGC activity at the time of adding the control solution, was calculated by dividing the fluorescent intensity ratio at the time of adding the test compound by the fluorescent intensity ratio of the control solution, and subtracting the sGC activity at the time of adding the control solution (100%).
If sGC is activated in this assay, intracellular cGMP concentration increases and accordingly intracellular Ca^2+ concentration is increased by opening of CNGA2. Accordingly, sGC activation can be measured as the change of Ca^2+ concentration in the cell. […] Accordingly, it is possible to evaluate maximum sGC activation effect including heme-dependent activation in the absence of ODQ, and also possible to evaluate heme independent sGC activation effect in the presence of ODQ.

[2] = tested on: rat ventral aorta; experiment: Blood vessel relaxation activity, phenylephrine-contracted rat ventral aorta ring specimen; settings: relaxation of 1 μmol/L phenylephrine contraction; EC50 without ODQ / EC50 with 10 μmol/L ODQ
Description: A representative compound of the present invention was assayed for blood vessel relaxation activity according to the Test Example described below. In the assay, a rat (male, SD) was phlebotomized from the upper part of the heart under pentobarbital (30 mg/kg) anesthesia, and the ventral aorta was extracted. The connective tissue adhering around the blood vessel in the ventral aorta was removed in an ice-cooled Krebs-Henseleit solution (KH solution) (118 mmol/L sodium chloride, 4.7 mmol/L potassium chloride, 1.2 mmol/L magnesium sulfate, 1.2 mmol/L potassium dihydrogenphosphate, 25 mmol/L sodium hydrogen carbonate, 2.5 mmol/L calcium chloride and 10 mmol/L glucose, pH 7.4). Then, a ring specimen of 2 mm length was prepared, and fixed in 5 mL organ bath filled with the KH solution. The KH solution was maintained at 37° C., and a mixed gas of 95% O2 and 5% CO2 was ventilated. The specimen was stabilized with 1 g of the resting tension for 1 hour. In the meantime, the KH solution was exchanged twice. The tension of the specimen was recorded with a multichannel recorder through a pickup and an amplifier. After stabilization of the specimen, contraction was induced with 1 μmol/L phenylephrine (Phe), and cumulative administration of each compound (0.001, 0.01, 0.03, 0.1, 0.3, 1, 3, 10, 30, 100, 1000, 10000 nmol/L) was carried out. In the case of evaluation at the time of containing ODQ, 10 μmol/L ODQ was added 10 minutes before administration of Phe, and similar evaluation was performed.
EC50 value was calculated by Four-parameter Logistic Model with Assay Explorer (Accelrys, Inc.). Meanwhile, the solution of the test compound was prepared by dissolving the compound in DMSO to prepare solutions having the concentration of each test compound 1000 times higher than the final concentration.

[3] = 10 μmol/L ODQ present, read-out: Emax (%) ODQ+ (Heme-independent)
[4] = absence of ODQ, read-out: Emax (%) ODQ− (Heme-dependent)

Emax at 10 µM [1, 3] [%]	Emax at 10 µM [1, 4] [%]	EC50 Ratio (ODQ−/ODQ+) [2]	Compound
114	98	2.99	Cc1ccc(C(CN(CCCCC(=O)O)Cc2ccc(C(=O)O)c(F)c2)OCc2ccc(CCc3ccccc3)cc2)s1 (stereo not drawn) [Example 28, 4-{[N-(4-Carboxybutyl)-N-[2-[4-(2-phenylethyl)benzyloxy]-2-(5-methyl-2-thienyl)ethyl]amino]methyl}-2-fluorobenzoic acid]
113	132	6.88	Cc1cccc(C(CN(CCCCC(=O)O)Cc2ccc(C(=O)O)cc2)OCc2ccc(CCc3ccccc3)cc2)c1 (stereo not drawn) [Example 23, 4-{[N-(4-Carboxybutyl)-N-[2-(3-methylphenyl)-2-[4-(2-phenylethyl)benzyloxy]ethyl]amino]methyl}benzoic acid]
110	98.2	9.66	O=C(O)CCCCN(Cc1ccc(C(=O)O)cc1)C[C@H](OCc1ccc(CCc2ccccc2)cc1)c1cccc(Cl)c1 [Example 29, (−)-4-{[N-(4-Carboxybutyl)-N-[(2R)-2-(3-chlorophenyl)-2-[4-(2-phenylethyl)benzyloxy]ethyl]amino]methyl}benzoic acid]
102	130	3.26	O=C(O)CCCCN(Cc1ccc(C(=O)O)cc1)CC(OCc1ccc(CCc2ccccc2)cc1)c1ccccc1 (stereo not drawn) [Example 2, 4-{[N-(4-Carboxybutyl)-N-[2-[4-(2-phenylethyl)benzyloxy]-2-phenylethyl]amino]methyl}benzoic acid]
132	92.4	8.31	CC(C)(CCCN(Cc1ccc(C(=O)O)cc1)CC(OCc1ccc(CCc2ccccc2)cc1)c1ccccc1)C(=O)O (stereo not drawn) [Example 16, 4-{[N-(4-Carboxy-4-methylpentyl)-N-[2-[4-(2-phenylethyl)benzyloxy]-2-phenylethyl]amino]methyl}benzoic acid]
118	187	2.66	O=C(O)CCCCN(Cc1ccc(C(=O)O)cc1)CC(OCc1ccc(CCc2ccccc2)cc1)c1ccc(Cl)s1 (stereo not drawn) [Example 27, 4-{[N-(4-Carboxybutyl)-N-[2-[4-(2-phenylethyl)benzyloxy]-2-(5-chloro-2-thienyl)ethyl]amino]methyl}benzoic acid]
127	143	8.40	O=C(O)CCCCN(Cc1ccc(C(=O)O)cc1)C[C@H](OCc1ccc(Oc2ccc(Cl)cc2)cc1)c1ccccc1 [Example 42, (−)-4-{[N-(4-Carboxybutyl)-N-[(2R)-2-[4-(4-chlorophenyloxy)benzyloxy]-2-phenylethyl]amino]methyl}benzoic acid]
87.7	128	7.31	O=C(O)CCCCN(Cc1ccc(C(=O)O)cc1)C[C@H](OCc1ccc(CCc2ccccc2)cc1)c1ccccc1 [Example 32, (−)-4-{[N-(4-Carboxybutyl)-N-[(2R)-2-[4-(2-phenylethyl)benzyloxy]-2-phenylethyl]amino]methyl}benzoic acid]
114	130	2.61	O=C(O)CCCCN(Cc1ccc(C(=O)O)cc1)CC(OCc1ccc(CCc2ccccc2)s1)c1ccccc1 (stereo not drawn) [Example 25, 4-{[N-(4-Carboxybutyl)-N-[2-[5-(2-phenylethyl)thiophen-2-ylmethoxy]-2-phenylethyl]amino]methyl}benzoic acid]
123	109	4.26	O=C(O)CCCCN(Cc1ccc(C(=O)O)cc1)C[C@H](OCc1ccc(CCc2ccccc2)cc1F)c1ccccc1 [Example 45, (−)-4-{[N-(4-Carboxybutyl)-N-[(2R)-2-[2-fluoro-4-(2-phenylethyl)benzyloxy]-2-phenylethyl]amino]methyl}benzoic acid]
